Test in all cases: inhibition of tumour cell growth, NCI panel, 48 h
Test [1] concerns SK-MEL-28 melanoma.
Test [2] deals with ACHN renal.
Test [3] has as its system HS 578T breast.
Test [4] relates to RXF 393 renal.
Test [5] relates to HCC-2998 colon.
In test [6] the test system is UACC-257 melanoma.
Test [7] concerns MCF7 breast.
Test [8] has as its system MDA-MB-231 breast.

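In this assay, cells in 96-well plates receive the compound at five concentrations for 48 hours. Endpoints are linearly interpolated between the surrounding concentrations. GI50 is the concentration that inhibits growth by half. TGI: total growth inhibition.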

Take `CCCCCCOc1ccc(/C=N/NC(N)=S)cc1`: the GI50 is 10.9 µM in test [1]; 5.89 µM in test [2]; 3.16 µM in test [3]; 1.44 µM in test [4]; 6.45 µM in test [5]; 3.5 µM in test [6]. Further, the GI50 in test [7] was 6.74 µM; in test [8], 1.67 µM. The TGI is 38.4 µM in test [1]; over 100 µM in test [2]; 15 µM in test [3]; 3.61 µM in test [4]; over 100 µM in test [5]; 27.8 µM in test [6]. For the same compound, the TGI in test [7] came out at 34.3 µM; in test [8], 17.1 µM.
In the case of `Cc1[nH]c(C(=O)Nc2ccc(C(=O)N3CCNCC3)cc2OC(C)C)c(Cl)c1Cl`, the GI50 was 1.78 µM in test [1]; 1.68 µM in test [2]; 1.74 µM in test [3]; 1.59 µM in test [4]; 1.78 µM in test [5]; 1.79 µM in test [6]. The GI50 in test [7] is 1.8 µM; in test [8], 1.67 µM. Also, the TGI worked out at 3.24 µM in test [1]; 3.07 µM in test [2]; 3.91 µM in test [3]; 3.25 µM in test [4]; 3.38 µM in test [5]; 3.52 µM in test [6]. Besides, the results for the TGI in test [7] and in test [8] were 3.59 µM and 3.33 µM, respectively.
For the compound `C[C@@H]1COCCN1c1nc(-c2cnc(N)cc2C(F)F)nc(N2[C@H](C)COC[C@@H]2C)n1`, the GI50 in test [1] is 0.255 µM; in test [2], 0.265 µM; in test [3] it was 0.128 µM; in test [4], 0.0668 µM; in test [5] it was 0.31 µM; in test [6], 0.323 µM. Further, the results for the GI50 in test [7] and in test [8] were 0.115 µM and 0.412 µM, respectively. The TGI in test [1] turned out to be 11.7 µM; in test [2] it was 11.8 µM; in test [3], 0.611 µM; in test [4] it was 0.485 µM; in test [5], 12.2 µM; in test [6] it was 8.05 µM. The TGI in test [7] worked out at 11.4 µM; in test [8], 20.8 µM.
As to `CN(C)C(=S)NN=C(c1ccccn1)c1ccccn1`, the GI50 in test [1] is 0.131 µM; in test [2] it was under 0.0108 µM; in test [4] it was 0.138 µM; in test [5], 0.0327 µM; in test [6], under 0.012 µM; in test [7], under 0.01 µM. For the same compound, the GI50 in test [8] is 0.0412 µM. The TGI in test [1] was 18.2 µM; in test [2] it was 10.7 µM; in test [3] it was over 55.4 µM; in test [4], 13.8 µM; in test [5], 21.2 µM; in test [6], 2.51 µM. For the same compound, the TGI in test [7] is over 47.4 µM; in test [8], 27.8 µM.
Consider `CN(C)c1ccc(C(=O)c2ccc(N(C)C)c(N)c2)cc1N`, for which the GI50 in test [1] is 12.8 µM; in test [2] it was 14.8 µM; in test [3], 1.75 µM; in test [4], 3.76 µM; in test [5], 3.9 µM; in test [6], over 100 µM. Besides, the results for the GI50 in test [7] and in test [8] were 0.686 µM and 5.81 µM, respectively. Moreover, the TGI is over 100 µM in test [1]; over 100 µM in test [2]; over 21.2 µM in test [3]; 18.4 µM in test [4]; 39.3 µM in test [5]; over 100 µM in test [6]. In addition, the TGI in test [7] is over 59.9 µM; in test [8] it was over 77.6 µM.
For `Nc1nc2c(c3ncccc13)C(c1ccc(Cl)c(Cl)c1)Cc1ncccc1-2` (stereo not drawn), the GI50 in test [1] is 4.07 µM; in test [2], 4.55 µM; in test [3] it was 3.62 µM; in test [4] it was 1.52 µM; in test [5] it was 5.62 µM; in test [6] it was 13.2 µM. Further, the GI50 in test [7] is 2.99 µM; in test [8], 4.05 µM. The TGI in test [1] was determined as 13.9 µM; in test [2], 16 µM; in test [3], 19.2 µM; in test [4], 5.25 µM; in test [5] it was 19.1 µM; in test [6], 26.4 µM. In addition, the results for the TGI in test [7] and in test [8] were 14.2 µM and 17.1 µM, respectively.
With `Cn1c(=O)c(Oc2cccc(F)c2)cc2cnc(NC3CCOCC3)nc21`, the GI50 in test [1], in test [2], in test [3], in test [4], in test [5] and in test [6] was over 25 µM in each case. Moreover, the GI50 in test [7] and in test [8] was over 25 µM throughout. Further, the TGI in test [1], in test [2], in test [3], in test [4], in test [5] and in test [6] was over 25 µM each time. Also, the TGI in test [7] and in test [8] was over 25 µM throughout.
Take `O=C1c2ccccc2-c2c1c1ccc([N+](=O)[O-])cc1c(=O)n2CCNCCCNCCn1c2c(c3ccc([N+](=O)[O-])cc3c1=O)C(=O)c1ccccc1-2`: the GI50 in test [1] is 1.29 µM; in test [2] it was 0.338 µM; in test [3], 1.34 µM; in test [4], 0.389 µM; in test [5], 0.992 µM; in test [6], 8.89 µM. The GI50 in test [7] was 0.708 µM; in test [8], 0.033 µM. For the same compound, the TGI is 10.2 µM in test [1]; 24.5 µM in test [2]; 31.4 µM in test [3]; 13.8 µM in test [4]; 13.3 µM in test [5]; 25.1 µM in test [6]. The TGI in test [7] was found to be 27.1 µM; in test [8], 0.53 µM.
As for `COc1cc2c(cc1OCCCOC1=C=C=C(c3ccc4c(c3)c3cc(-c5ccc(OCCCOc6cc7c(cc6OC)C(=O)N6CCC[C@H]6C=N7)cc5)ccc3n4S(=O)(=O)c3ccc(C)cc3)C=C1)N=C[C@@H]1CCCN1C2=O`, the GI50 in test [1] was 1.86 µM; in test [2], 1.75 µM; in test [3], 1.42 µM; in test [4], 1.17 µM; in test [5], 0.731 µM; in test [6], 6.71 µM. Besides, the values for the GI50 in test [7] and in test [8] were 1.23 µM and 5.31 µM, respectively. Besides, the TGI is 4.97 µM in test [1]; 7.8 µM in test [2]; over 10.8 µM in test [3]; 2.59 µM in test [4]; 3.67 µM in test [5]; 15.6 µM in test [6]. The TGI in test [7] amounted to 11.3 µM; in test [8], 16 µM.
